Article PMC10162847 (Phytomedicine, 2023)

Test system: SARS-CoV-2 RBD^WT and mutant proteins on HEK293-hACE2-EGFP cells
Assay type: cell-based, human

O=c1c(O)c(-c2cc(O)c(O)c(O)c2)oc2cc(O)cc(O)c12 [myricetin, 3,5,7-trihydroxy-2-(3,4,5-tri hydroxyphenyl)-4-benzopyrone]
binding of SARS-CoV-2 S protein to HEK293-hACE2-EGFP cell membranes: blocked
